# Reference: patent US7452887B2, “Quinoline- and isoquinoline-based compounds exhibiting ATP-utilizing enzyme inhibitory activity, and compositions, and uses thereof” (Amphora Discovery Corporation, priority 2004, dated 2008)
# Assays:
# Assay in all cases: HTS ATP-utilizing enzyme assay, off-chip mobility-shift (Caliper HTS 250)
# Assay type in all cases: biochemical
# Conditions in all cases: test compound 10 μM, kinase listed = active (greater than six-sigma from the mean activity of inactive compounds)
# BMX = target: T1, BMX (Homo sapiens, UniProt P51813)
# T1 sequence (P51813 1-675): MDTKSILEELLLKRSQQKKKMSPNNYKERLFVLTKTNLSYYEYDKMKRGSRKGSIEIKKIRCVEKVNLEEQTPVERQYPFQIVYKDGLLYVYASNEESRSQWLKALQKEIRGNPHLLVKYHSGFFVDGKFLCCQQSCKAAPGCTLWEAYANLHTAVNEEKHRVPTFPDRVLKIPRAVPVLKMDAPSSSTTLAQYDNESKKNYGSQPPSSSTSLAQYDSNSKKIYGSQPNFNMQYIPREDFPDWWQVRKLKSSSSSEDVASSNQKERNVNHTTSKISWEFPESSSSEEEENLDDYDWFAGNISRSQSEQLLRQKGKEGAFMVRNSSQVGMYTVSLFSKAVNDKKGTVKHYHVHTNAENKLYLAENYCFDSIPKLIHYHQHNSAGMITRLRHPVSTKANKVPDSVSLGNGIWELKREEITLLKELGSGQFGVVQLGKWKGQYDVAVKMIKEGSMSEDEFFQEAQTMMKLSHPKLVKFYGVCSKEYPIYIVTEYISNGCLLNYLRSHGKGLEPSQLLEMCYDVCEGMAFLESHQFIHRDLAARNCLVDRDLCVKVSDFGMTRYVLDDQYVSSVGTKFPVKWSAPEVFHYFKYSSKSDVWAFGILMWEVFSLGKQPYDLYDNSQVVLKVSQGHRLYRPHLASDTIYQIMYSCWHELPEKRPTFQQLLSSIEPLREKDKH
# How it was run: (§1)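 The ratio of peptide substrate to phosphorylated product, measured by microfluidic mobility shift, gave percent inhibition. Reactions contained enzyme, peptide substrate and compound at 10 μM in HEPES pH 7.5 buffer, ran 2.5 hrs at 20° C. to 22° C., and were quenched with EDTA.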
# MAPKAPK2 = MAPKAPK2 (Homo sapiens, UniProt P49137)
# How it was run: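 Single-point screen of test compound at 10 μM against MAPKAPK2 with peptide substrate in HEPES pH 7.5 buffer (Triton X-100, BSA), 2.5 h at 20-22 °C. Substrate-to-phosphopeptide ratio was read by off-chip microfluidic mobility shift; EDTA and DMSO wells defined 100% and 0% controls, hits by six-sigma limits.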
# PRAK = target: T2, PRAK (Homo sapiens, UniProt Q8IW41)
# T2 sequence (Q8IW41 1-473): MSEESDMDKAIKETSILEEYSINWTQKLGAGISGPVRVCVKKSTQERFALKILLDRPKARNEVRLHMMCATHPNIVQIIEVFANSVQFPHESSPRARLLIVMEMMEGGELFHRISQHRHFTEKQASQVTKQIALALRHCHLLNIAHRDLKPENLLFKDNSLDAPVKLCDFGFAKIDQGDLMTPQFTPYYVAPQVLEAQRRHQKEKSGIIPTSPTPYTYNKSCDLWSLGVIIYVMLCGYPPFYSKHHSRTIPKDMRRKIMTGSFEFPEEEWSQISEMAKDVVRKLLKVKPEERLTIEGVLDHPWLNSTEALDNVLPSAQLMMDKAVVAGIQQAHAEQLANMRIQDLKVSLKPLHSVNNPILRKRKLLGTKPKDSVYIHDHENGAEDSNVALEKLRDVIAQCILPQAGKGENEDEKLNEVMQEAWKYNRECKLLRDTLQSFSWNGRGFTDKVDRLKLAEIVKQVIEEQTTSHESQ
# How it was run: as §1
# AKT3 = AKT3 (Homo sapiens, UniProt Q9Y243)
# How it was run: as §1
# NEK2 = target: T3, NEK2 (Homo sapiens, UniProt P51955)
# T3 sequence (P51955 1-445): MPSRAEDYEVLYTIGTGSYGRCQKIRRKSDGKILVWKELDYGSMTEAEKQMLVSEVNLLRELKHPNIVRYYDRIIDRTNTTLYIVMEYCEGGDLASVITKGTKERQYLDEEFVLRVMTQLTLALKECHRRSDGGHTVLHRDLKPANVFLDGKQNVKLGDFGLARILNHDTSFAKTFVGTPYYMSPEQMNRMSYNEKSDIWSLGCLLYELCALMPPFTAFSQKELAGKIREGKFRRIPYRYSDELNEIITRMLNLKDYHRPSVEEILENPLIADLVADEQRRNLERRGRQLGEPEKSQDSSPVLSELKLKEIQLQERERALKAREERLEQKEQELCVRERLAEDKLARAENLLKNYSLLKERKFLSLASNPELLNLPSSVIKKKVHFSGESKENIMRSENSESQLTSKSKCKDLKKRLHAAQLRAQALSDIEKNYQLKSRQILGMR
# How it was run: as §1
# C-TAK1 = C-TAK1 (Homo sapiens, UniProt P27448)
# How it was run: as §1
# CHEK1 = target: T4, CHEK1 (Homo sapiens, UniProt O14757)
# T4 sequence (O14757 1-476): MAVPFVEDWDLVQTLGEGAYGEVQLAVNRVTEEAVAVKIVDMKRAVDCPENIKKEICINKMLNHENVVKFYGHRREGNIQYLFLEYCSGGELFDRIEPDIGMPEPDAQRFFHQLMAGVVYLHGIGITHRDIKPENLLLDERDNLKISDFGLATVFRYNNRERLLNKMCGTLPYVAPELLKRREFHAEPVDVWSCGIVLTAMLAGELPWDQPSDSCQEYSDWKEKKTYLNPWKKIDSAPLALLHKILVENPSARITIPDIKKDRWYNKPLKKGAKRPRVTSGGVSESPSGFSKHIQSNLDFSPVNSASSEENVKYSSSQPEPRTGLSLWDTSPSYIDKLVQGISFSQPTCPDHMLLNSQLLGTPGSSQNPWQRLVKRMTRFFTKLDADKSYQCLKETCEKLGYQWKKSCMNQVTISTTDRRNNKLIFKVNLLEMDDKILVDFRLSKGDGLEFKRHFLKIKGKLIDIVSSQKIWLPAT
# How it was run: as §1
# KIT = KIT (Homo sapiens, UniProt P10721)
# How it was run: as §1
# FLT-3 = target: T5, FLT-3 (Homo sapiens, UniProt P36888)
# T5 sequence (P36888 27-993): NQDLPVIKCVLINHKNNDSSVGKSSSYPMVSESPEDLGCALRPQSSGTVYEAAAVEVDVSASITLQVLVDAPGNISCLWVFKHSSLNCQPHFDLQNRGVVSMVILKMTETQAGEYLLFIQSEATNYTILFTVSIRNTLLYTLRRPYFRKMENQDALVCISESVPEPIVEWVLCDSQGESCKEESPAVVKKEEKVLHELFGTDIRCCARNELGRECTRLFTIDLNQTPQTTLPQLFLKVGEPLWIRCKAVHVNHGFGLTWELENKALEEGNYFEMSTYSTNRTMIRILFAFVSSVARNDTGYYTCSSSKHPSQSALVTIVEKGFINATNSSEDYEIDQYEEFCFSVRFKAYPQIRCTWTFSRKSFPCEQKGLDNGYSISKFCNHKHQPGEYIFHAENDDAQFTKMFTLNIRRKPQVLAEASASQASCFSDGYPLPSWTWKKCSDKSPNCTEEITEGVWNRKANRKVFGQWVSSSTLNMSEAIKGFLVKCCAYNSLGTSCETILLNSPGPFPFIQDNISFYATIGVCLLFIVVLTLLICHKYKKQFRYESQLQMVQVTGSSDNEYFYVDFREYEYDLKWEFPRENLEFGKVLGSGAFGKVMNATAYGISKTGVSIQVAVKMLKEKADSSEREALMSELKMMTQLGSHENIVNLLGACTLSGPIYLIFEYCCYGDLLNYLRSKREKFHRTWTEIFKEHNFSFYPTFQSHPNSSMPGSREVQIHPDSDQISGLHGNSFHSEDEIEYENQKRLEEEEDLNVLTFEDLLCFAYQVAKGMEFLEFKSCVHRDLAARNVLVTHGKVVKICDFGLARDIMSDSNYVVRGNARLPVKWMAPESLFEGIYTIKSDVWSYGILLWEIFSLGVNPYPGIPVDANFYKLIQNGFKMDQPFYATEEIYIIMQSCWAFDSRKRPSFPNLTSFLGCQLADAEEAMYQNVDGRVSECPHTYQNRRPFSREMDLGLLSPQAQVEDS
# How it was run: as §1
# GSK3-α = GSK3-α (Homo sapiens, UniProt P49840)
# How it was run: as §1
# CHEK2 = CHEK2 (Homo sapiens, UniProt O96017)
# How it was run: as §1
# AKT3, sequence (Q9Y243 whole entry): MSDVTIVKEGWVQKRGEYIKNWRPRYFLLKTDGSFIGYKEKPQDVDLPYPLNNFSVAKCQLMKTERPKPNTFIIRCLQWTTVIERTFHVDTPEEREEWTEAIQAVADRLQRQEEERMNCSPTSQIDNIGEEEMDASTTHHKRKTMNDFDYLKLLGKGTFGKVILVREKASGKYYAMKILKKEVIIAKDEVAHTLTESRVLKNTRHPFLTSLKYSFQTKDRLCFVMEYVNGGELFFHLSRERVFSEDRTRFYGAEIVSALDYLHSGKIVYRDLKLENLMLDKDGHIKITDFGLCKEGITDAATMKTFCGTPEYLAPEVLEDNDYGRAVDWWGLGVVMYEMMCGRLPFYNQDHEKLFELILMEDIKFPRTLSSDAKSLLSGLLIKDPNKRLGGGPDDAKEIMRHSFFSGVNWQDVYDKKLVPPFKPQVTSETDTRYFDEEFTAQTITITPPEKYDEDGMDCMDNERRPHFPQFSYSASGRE
# C-TAK1, sequence (P27448 whole entry): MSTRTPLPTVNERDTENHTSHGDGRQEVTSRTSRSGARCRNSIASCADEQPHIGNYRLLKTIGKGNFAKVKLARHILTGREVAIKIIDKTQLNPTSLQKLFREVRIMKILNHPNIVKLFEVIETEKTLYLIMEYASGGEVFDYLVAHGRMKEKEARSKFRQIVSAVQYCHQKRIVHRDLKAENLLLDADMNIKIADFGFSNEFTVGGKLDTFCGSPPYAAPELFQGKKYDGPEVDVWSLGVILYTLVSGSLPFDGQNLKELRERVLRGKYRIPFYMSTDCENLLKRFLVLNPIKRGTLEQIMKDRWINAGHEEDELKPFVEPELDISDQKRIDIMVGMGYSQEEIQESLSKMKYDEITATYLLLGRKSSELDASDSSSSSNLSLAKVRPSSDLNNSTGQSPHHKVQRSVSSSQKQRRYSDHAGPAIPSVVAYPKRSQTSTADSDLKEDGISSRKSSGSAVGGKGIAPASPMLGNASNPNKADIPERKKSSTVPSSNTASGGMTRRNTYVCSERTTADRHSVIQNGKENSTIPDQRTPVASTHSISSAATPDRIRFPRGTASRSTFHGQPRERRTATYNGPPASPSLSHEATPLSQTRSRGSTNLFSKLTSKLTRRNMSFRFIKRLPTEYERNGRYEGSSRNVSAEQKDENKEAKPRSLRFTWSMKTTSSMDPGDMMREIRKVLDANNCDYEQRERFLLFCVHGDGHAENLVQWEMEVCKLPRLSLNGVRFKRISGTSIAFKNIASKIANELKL
# KIT, sequence (P10721 26-976): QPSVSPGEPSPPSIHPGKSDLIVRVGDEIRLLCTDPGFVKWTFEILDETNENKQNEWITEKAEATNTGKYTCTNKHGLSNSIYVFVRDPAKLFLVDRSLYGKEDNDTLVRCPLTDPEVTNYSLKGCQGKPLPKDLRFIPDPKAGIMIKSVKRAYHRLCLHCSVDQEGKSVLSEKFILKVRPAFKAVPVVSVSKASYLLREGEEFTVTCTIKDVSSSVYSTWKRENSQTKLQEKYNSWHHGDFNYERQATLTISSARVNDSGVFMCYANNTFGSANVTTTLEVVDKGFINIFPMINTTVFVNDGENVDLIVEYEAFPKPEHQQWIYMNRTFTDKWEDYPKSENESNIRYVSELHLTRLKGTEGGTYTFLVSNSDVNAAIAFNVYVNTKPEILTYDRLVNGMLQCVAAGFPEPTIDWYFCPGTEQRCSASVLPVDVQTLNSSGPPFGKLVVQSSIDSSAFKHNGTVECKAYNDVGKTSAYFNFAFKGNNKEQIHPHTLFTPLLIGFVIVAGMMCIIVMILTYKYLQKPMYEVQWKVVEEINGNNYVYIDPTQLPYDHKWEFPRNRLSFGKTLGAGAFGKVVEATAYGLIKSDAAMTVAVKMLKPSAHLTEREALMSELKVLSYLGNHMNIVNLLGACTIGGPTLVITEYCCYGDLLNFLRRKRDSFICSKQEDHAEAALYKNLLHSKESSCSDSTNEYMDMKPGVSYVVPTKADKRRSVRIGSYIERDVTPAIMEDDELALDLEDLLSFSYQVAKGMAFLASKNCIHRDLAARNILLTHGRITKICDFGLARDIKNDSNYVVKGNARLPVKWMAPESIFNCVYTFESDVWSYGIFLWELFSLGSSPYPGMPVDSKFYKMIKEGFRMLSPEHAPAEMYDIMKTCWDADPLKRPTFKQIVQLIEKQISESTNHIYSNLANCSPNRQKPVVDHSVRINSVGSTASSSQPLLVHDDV
# MAPKAPK2, sequence (P49137 whole entry): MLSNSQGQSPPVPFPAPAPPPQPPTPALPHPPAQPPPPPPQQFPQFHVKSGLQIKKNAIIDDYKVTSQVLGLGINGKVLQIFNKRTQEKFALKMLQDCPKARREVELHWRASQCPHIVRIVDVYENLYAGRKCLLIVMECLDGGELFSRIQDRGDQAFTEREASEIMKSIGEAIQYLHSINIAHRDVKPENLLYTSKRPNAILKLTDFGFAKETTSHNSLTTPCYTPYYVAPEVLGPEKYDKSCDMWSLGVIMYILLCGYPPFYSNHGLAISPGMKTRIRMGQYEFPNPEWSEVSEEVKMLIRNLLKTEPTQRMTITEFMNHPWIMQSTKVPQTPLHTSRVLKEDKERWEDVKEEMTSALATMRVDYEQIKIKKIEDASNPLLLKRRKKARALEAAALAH
# CHEK2, sequence (O96017 whole entry): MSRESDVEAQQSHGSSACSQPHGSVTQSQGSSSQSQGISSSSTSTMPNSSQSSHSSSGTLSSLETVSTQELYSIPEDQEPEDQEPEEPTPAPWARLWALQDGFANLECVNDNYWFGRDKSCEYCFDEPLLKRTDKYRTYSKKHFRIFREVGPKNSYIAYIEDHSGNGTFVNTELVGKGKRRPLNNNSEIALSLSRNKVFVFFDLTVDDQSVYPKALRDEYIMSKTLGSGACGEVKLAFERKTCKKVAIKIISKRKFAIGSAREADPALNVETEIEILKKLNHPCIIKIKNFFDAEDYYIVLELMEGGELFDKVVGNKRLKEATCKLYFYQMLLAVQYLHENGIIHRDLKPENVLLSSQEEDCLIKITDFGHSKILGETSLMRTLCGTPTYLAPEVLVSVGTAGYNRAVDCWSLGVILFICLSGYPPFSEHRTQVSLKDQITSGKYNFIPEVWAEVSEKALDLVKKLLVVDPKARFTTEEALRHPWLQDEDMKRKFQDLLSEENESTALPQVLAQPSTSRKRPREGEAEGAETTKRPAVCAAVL
# GSK3-α, sequence (P49840 whole entry): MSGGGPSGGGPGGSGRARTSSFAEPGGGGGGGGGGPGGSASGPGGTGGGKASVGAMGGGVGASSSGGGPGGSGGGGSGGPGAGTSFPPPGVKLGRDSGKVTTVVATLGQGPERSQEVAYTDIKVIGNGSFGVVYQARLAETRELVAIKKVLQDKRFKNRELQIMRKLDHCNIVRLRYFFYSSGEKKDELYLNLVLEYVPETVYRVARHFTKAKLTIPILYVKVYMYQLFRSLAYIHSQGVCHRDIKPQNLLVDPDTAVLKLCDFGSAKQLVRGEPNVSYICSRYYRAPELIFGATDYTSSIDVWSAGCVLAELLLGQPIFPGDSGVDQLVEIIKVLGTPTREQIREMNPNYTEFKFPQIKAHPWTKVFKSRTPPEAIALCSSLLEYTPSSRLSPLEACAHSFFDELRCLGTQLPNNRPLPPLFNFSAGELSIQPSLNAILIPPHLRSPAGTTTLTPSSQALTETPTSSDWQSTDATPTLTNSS
SMILES,Activity (BMX),Activity (MAPKAPK2),Activity (PRAK),other results
CN(C)CCN1CCN(c2ccc(Nc3ccnc4ccc(-c5ccc(C#N)cc5)cc34)cc2)CC1 [4-(4-(4-(4-(2-(dimethylamino)ethyl)piperazin-1-yl)phenylamino)quinolin-6-yl)benzonitrile],,MAPKAPK2,,Activity (C-TAK1): C-TAK1; Activity (CHEK1): CHEK1
CN1CCN(c2ccc(N(C)c3ccnc4ccc(-c5ccccc5)cc34)cc2)CC1 [N-methyl-N-(4-(4-methylpiperazin-1-yl)phenyl)-6-phenylquinolin-4-amine],BMX,MAPKAPK2,,Activity (FLT-3): FLT-3; Activity (KIT): KIT
CCC(C)N1CCN(c2ccc(Nc3ccnc4ccc(-c5ccc(C#N)cc5)cc34)cc2)CC1 (stereo not drawn) [4-(4-(4-(4-sec-butylpiperazin-1-yl)phenylamino)quinolin-6-yl)benzonitrile],BMX,MAPKAPK2,,
CN1CCN(c2ccc(Nc3ccnc4ccc(-c5cccc([N+](=O)[O-])c5)cc34)cc2)CC1 [N-(4-(4-methylpiperazin-1-yl)phenyl)-6-(3-nitrophenyl)quinolin-4-amine],,,PRAK,Activity (AKT3): AKT3
CN1CCN(c2ccc(N(C)c3ccnc4ccc(-c5ccc(C#N)cc5)cc34)cc2)CC1 [4-(4-(methyl(4-(4-methylpiperazin-1-yl)phenyl)amino)quinolin-6-yl)benzonitrile],BMX,MAPKAPK2,,Activity (FLT-3): FLT-3; Activity (KIT): KIT
"CN1CCN(c2ccc(Nc3ccnc4ccc(-c5cc(F)c(F)c(F)c5)cc34)cc2)CC1 [N-(4-(4-methylpiperazin-1-yl)phenyl)-6-(3,4,5-trifluorophenyl)quinolin-4-amine]",,MAPKAPK2,PRAK,Activity (CHEK1): CHEK1; Activity (NEK2): NEK2
CN1CCN(c2ccc(Nc3ccnc4ccc(-c5ccc(C(C)(C)C)cc5)cc34)cc2)CC1 [6-(4-tert-butylphenyl)-N-(4-(4-methylpiperazin-1-yl)phenyl)quinolin-4-amine],,MAPKAPK2,PRAK,Activity (C-TAK1): C-TAK1; Activity (CHEK1): CHEK1; Activity (NEK2): NEK2
CN1CCN(c2ccc(Nc3ccnc4ccc(-c5ccc(C(F)(F)F)cc5)cc34)cc2)CC1 [N-(4-(4-methylpiperazin-1-yl)phenyl)-6-(4-(trifluoromethyl)phenyl)quinolin-4-amine],,,PRAK,Activity (C-TAK1): C-TAK1; Activity (CHEK1): CHEK1; Activity (NEK2): NEK2

# More lines, main results first:
Activity (BMX),Activity (MAPKAPK2),Activity (PRAK),SMILES,other results
BMX,MAPKAPK2,,COc1ccc(-c2ccc3nccc(Nc4ccc(N5CCN(C(C)C)CC5)cc4)c3c2)cc1 [N-(4-(4-isopropylpiperazin-1-yl)phenyl)-6-(4-methoxyphenyl)quinolin-4-amine],
,MAPKAPK2,PRAK,"Cc1ccc(C)c(-c2ccc3nccc(Nc4ccc(N5CCN(C)CC5)cc4)c3c2)c1 [6-(2,5-dimethylphenyl)-N-(4-(4-methylpiperazin-1-yl)phenyl)quinolin-4-amine]",Activity (AKT3): AKT3; Activity (NEK2): NEK2
BMX,MAPKAPK2,PRAK,"CN1CCN(c2ccc(Nc3ccnc4ccc(-c5cccc6cccnc56)cc34)cc2)CC1 [N-(4-(4-methylpiperazin-1-yl)phenyl)-6,8′-biquinolin-4-amine]",Activity (KIT): KIT
,MAPKAPK2,PRAK,CC(=O)Nc1cccc(-c2ccc3nccc(Nc4ccc(N5CCN(C)CC5)cc4)c3c2)c1 [N-(3-(4-(4-(4-methylpiperazin-1-yl)phenylamino)quinolin-6-yl)phenyl)acetamide],Activity (GSK3-α): GSK3-α
,MAPKAPK2,PRAK,CN1CCN(c2ccc(Nc3ccnc4ccc(-c5cccnc5)cc34)cc2)CC1 [N-(4-(4-methylpiperazin-1-yl)phenyl)-6-(pyridin-3-yl)quinolin-4-amine],Activity (AKT3): AKT3
,MAPKAPK2,PRAK,CN1CCN(c2ccc(Nc3ccnc4ccc(-c5cccc(CO)c5)cc34)cc2)CC1 [(3-(4-(4-(4-methylpiperazin-1-yl)phenylamino)quinolin-6-yl)phenyl)methanol],Activity (CHEK2): CHEK2; Activity (FLT-3): FLT3
